# Marks after values point to notes of the source that are not given here.
# Tests used:
# [1] = target: T1, ΔPH-PDK1 (shortened PDK1 enzyme aa 51-359; Q66A mutation) (Homo sapiens, UniProt O15530, Q66A); test: PDK1 kinase assay II; type: biochemical; settings: 10 μM compound, residual enzyme activity relative to DMSO control, values marked with asterisk (*)
# T1 construct: a shortened PDK1 enzyme (aa 51-359; Q66A mutation) is used; His6 (N, cleaved yes); made in house
# T1 sequence (O15530 51-359 Q66A): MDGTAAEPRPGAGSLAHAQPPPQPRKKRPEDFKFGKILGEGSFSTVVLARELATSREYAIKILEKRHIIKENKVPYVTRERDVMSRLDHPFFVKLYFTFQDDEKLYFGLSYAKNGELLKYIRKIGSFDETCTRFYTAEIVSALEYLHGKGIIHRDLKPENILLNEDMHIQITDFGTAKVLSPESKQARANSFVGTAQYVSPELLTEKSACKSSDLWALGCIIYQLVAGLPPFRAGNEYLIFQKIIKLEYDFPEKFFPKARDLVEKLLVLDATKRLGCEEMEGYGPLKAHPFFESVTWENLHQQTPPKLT
# Method: Another assay was developed in which a shortened PDK1 enzyme (aa 51-359; Q66A mutation) is used that carries in the N-terminal position a His6 tag that is cleaved during purification. (ΔPH-PDK1). […]
# The reaction is started by adding the ATP solution and the mixture is incubated for 120 min at ambient temperature; at the start of the reaction the dishes are shaken gently. […] Then the plate is stuck down with sealing tape, 25 μL/well of scintillation solution (Microscint 0; Messrs. Perkin Elmer; No. 6013611) are added and the amount of P33 precipitated is measured using the Wallac Betacounter. The measured data are evaluated using Graphpad Prism software.
# (§1) The % CTL values indicate the residual activity of the enzyme after the addition of the inhibitory compound in the solvent DMSO in relation to the enzyme activity in the solvent DMSO without the addition of a compound (control). The majority of the values were determined using the PDK1 kinase assay III described hereinbefore. The values marked with an asterisk (*) were determined using the PDK1 kinase assay II described hereinbefore.
# His6-PDK1 (aa 52-556) = target: T2, His6-PDK1 (aa 52-556) (Homo sapiens, UniProt O15530); test: PDK1 kinase assay III (with Tween 20); type: biochemical; settings: 10 μM compound, residual enzyme activity relative to DMSO control, unmarked values, read-out: % CTL
# T2 construct: 15 μL His6-PDK1 (aa 52-556) 3.33 ng/well) and PDKtide; host or cells: baculovirus-infected insect cells
# T2 sequence (O15530 52-556): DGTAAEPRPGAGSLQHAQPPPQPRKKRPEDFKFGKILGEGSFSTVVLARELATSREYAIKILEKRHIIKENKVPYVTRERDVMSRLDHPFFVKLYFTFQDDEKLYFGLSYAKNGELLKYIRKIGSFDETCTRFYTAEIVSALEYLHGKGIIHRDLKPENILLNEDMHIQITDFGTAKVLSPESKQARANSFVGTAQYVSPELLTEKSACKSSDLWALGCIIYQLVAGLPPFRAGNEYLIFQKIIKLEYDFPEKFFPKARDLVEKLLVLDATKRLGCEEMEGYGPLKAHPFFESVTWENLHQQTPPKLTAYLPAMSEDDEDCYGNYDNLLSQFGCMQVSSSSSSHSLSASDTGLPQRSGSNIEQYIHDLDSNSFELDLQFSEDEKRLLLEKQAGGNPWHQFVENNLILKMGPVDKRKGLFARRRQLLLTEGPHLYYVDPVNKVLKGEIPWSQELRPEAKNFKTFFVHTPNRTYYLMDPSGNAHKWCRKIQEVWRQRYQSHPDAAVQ
# Method: Another PDK1 assay was developed which by comparison with PDK1 assay 1 additionally contains Tween 20:
# The following components are combined in a well of a 96-well round-based dish (Messrs. Greiner bio-one, No. 650101): • 15 μL of compound to be tested in varying concentrations (e.g. Starting at 10 μM, and diluted in steps of 1:5) in APT buffer (50 mM tris/C1 pH7.5; 0.05% β-mercaptoethanol; 10 mM Mg-acetate; 0.0166% Tween 20; 3.33% DMSO) • 15 μL His6-PDK1 (aa 52-556) 3.33 ng/well) and PDKtide (KTFCGTPEYLAPEVRRE […]), synthesised by Pepceuticals Limited, Nottingham, United Kingdom; 25 μM final concentration); His6-PDK1 and PDKtide are together diluted accordingly in assay buffer (50 mM tris pH 7.5, 0.05% β-mercaptoethanol, 10 mM Mg-acetate); PDKtide is present in this mixture as an 83.3 μM solution. These 30 μL are routinely incubated for 30 min at RT. • 20 μL ATP solution (25 μM ATP with 1.0 μCi/well gamma-P33-ATP). The final concentration of Tween 20 is 0.005%.
# The reaction is started by adding the ATP solution and the mixture is incubated for 90 min at ambient temperature; at the start of the reaction the dishes are shaken gently. The reaction is stopped by the addition of 50 μL/well of 500 mM phosphoric acid (H3PO4) and incubated for about 20 min at ambient temperature. The precipitate is transferred by harvesting onto filter plates (96-well microtitre filter plate: UniFilter GF/C; Messrs Perkin Elmer; No. 6005174), then washed 6 times with 50 mM H3PO4 and dried at 60° C. Then the plate is stuck down with sealing tape, 25 μL/well of scintillation solution (Microscint 0; Messrs. Perkin Elmer; No. 6013611) are added and the amount of P33 precipitated is measured using the Wallac Betacounter. The measured data are evaluated using Graphpad Prism software.
# as §1
% CTL [1],Structure (SMILES),remaining activity at 10 µM (His6-PDK1 (aa 52-556)) [%]
47.0* %,"CN1CCC(N(C)c2ccc(Nc3ncc4cc(C#CCNC(=O)c5cccn(Cc6ccc(C(F)(F)F)nc6)c5=O)ccc4n3)cc2)CC1 [II-8, N-{3-[2-({4-[methyl(1-methylpiperidin-4-yl)amino]phenyl}amino)quinazolin-6-yl]prop-2-yn-1-yl}-2-oxo-1-{[6-(trifluoromethyl)pyridin-3-yl]methyl}-1,2-dihydropyridine-3-carboxamide]",
,"CN1CCC(Nc2ccc(Nc3ncc4cc(/C=C/CNC(=O)c5cccn(Cc6ccc(C(F)(F)F)nc6)c5=O)ccc4n3)cc2F)CC1 [III-14, N-{(2E)-3-[2-({3-fluoro-4-[(1-methylpiperidin-4-yl)amino]phenyl}amino)quinazolin-6-yl]prop-2-en-1-yl}-2-oxo-1-{[6-(trifluoromethyl)pyridin-3-yl]methyl}-1,2-dihydropyridine-3-carboxamide]",17.2
,"O=C1Nc2cc(/C=C/CNC(=O)c3cccn(Cc4ccccn4)c3=O)ccc2/C1=C/c1cnc[nH]1 [I-9, N-{(2E)-3-[(3Z)-3-(1H-imidazol-5-ylmethylidene)-2-oxo-2,3-dihydro-1H-indol-6-yl]prop-2-en-1-yl}-2-oxo-1-(pyridin-2-ylmethyl)-1,2-dihydropyridine-3-carboxamide]",17.7
15.6* %,"CN(C)Cc1ccc(Nc2ncc3cc(C#CCNC(=O)c4cccn(Cc5cccnc5)c4=O)ccc3n2)cc1 [II-5, N-{3-[2-({4-[(dimethylamino)methyl]phenyl}amino)quinazolin-6-yl]prop-2-yn-1-yl}-2-oxo-1-(pyridin-3-ylmethyl)-1,2-dihydropyridine-3-carboxamide]",

# Reference: patent US8637549B2, “Pyridons as PDK1 inhibitors” (Boehringer Ingelheim International GmbH, priority 2008, dated 2014)
